Experimental data taken from ChEMBL document CHEMBL2429845, “Design, synthesis, and antimicrobial activity of some novel homodrimane sesquiterpenoids with diazine skeleton” (2013).

Assays:
[1] = system: Staphylococcus aureus; experiment: Antibacterial activity against Staphylococcus aureus ATCC 25923 at 25 ug/disk after 24 hrs by agar diffusion assay; format: functional; details: ATCC 25923, 24 h, read-out: DIZ
[2] = system: Bacillus cereus; experiment: Antibacterial activity against Bacillus cereus ATCC 14579 at 25 ug/disk after 24 hrs by agar diffusion assay; format: functional; details: ATCC 14579, 24 h, read-out: DIZ
[3] = system: Pseudomonas aeruginosa; experiment: Antibacterial activity against Pseudomonas aeruginosa ATCC 27853 at 25 ug/disk after 24 hrs by agar diffusion assay; format: functional; details: ATCC 27853, 24 h, read-out: DIZ
[4] = system: Bacillus subtilis; experiment: Antibacterial activity against Bacillus subtilis at 25 ug/disk after 24 hrs by agar diffusion assay; format: functional; details: read-out: DIZ
[5] = system: Escherichia coli; experiment: Antibacterial activity against Escherichia coli ATCC 25922 at 25 ug/disk after 24 hrs by agar diffusion assay; format: functional; details: ATCC 25922, 24 h, read-out: DIZ
[6] = system: Micrococcus luteus; experiment: Antibacterial activity against Sarcina lutea ATCC 9341 at 25 ug/disk after 24 hrs by agar diffusion assay; format: functional; details: ATCC 9341, 24 h, read-out: DIZ
[7] = system: Nakaseomyces glabratus; experiment: Antifungal activity against Candida glabrata ATCC MYA 2950 at 10 mg/ml after 48 hrs by agar diffusion assay; format: functional; details: ATCC MYA 2950, 48 h, read-out: DIZ
[8] = system: [Candida] sake; experiment: Antifungal activity against Candida sake at 10 mg/ml after 48 hrs by agar diffusion assay; format: functional; details: Fermentozyma sake, read-out: DIZ
[9] = system: Pseudomonas aeruginosa; experiment: Antibacterial activity against Pseudomonas aeruginosa ATCC 27853 at 10 mg/ml after 24 hrs by agar diffusion assay; format: functional; details: ATCC 27853, 24 h, read-out: DIZ
[10] = system: Staphylococcus aureus; experiment: Antibacterial activity against Staphylococcus aureus ATCC 25923 at 10 mg/ml after 24 hrs by agar diffusion assay; format: functional; details: ATCC 25923, 24 h, read-out: DIZ
[11] = system: Escherichia coli; experiment: Antibacterial activity against Escherichia coli ATCC 25922 at 10 mg/ml after 24 hrs by agar diffusion assay; format: functional; details: ATCC 25922, 24 h, read-out: DIZ
[12] = system: Candida albicans; experiment: Antifungal activity against Candida albicans ATCC 10231 at 10 mg/ml after 48 hrs by agar diffusion assay; format: functional; details: ATCC 10231, 48 h, read-out: DIZ
[13] = system: Bacillus cereus; experiment: Antibacterial activity against Bacillus cereus ATCC 14579 at 10 mg/ml after 24 hrs by agar diffusion assay; format: functional; details: ATCC 14579, 24 h, read-out: DIZ
[14] = system: Bacillus subtilis; experiment: Antibacterial activity against Bacillus subtilis at 10 mg/ml after 24 hrs by agar diffusion assay; format: functional; details: read-out: DIZ
[15] = system: Micrococcus luteus; experiment: Antibacterial activity against Sarcina lutea ATCC 9341 at 10 mg/ml after 24 hrs by agar diffusion assay; format: functional; details: ATCC 9341, 24 h, read-out: DIZ
[16] = system: Nakaseomyces glabratus; experiment: Antifungal activity against Candida glabrata ATCC MYA 2950 100 mg/disk after 48 hrs by agar diffusion assay; format: functional, organism-based
[17] = system: Candida albicans; experiment: Antifungal activity against Candida albicans ATCC 10231 at 100 mg/disk after 48 hrs by agar diffusion assay; format: functional, organism-based
[18] = system: [Candida] sake; experiment: Antifungal activity against Candida sake 100 mg/disk after 48 hrs by agar diffusion assay; format: functional, organism-based
[19] = system: Pseudomonas aeruginosa; experiment: Antibacterial activity against Pseudomonas aeruginosa ATCC 27853 at 30 ug/disk after 24 hrs by agar diffusion assay; format: functional; details: ATCC 27853, 24 h, read-out: DIZ
[20] = system: Staphylococcus aureus; experiment: Antibacterial activity against Staphylococcus aureus ATCC 25923 at 30 ug/disk after 24 hrs by agar diffusion assay; format: functional; details: ATCC 25923, 24 h, read-out: DIZ
[21] = system: Escherichia coli; experiment: Antibacterial activity against Escherichia coli ATCC 25922 at 30 ug/disk after 24 hrs by agar diffusion assay; format: functional; details: ATCC 25922, 24 h, read-out: DIZ
[22] = system: Bacillus subtilis; experiment: Antibacterial activity against Bacillus subtilis at 30 ug/disk after 24 hrs by agar diffusion assay; format: functional; details: read-out: DIZ
[23] = system: Bacillus cereus; experiment: Antibacterial activity against Bacillus cereus ATCC 14579 at 30 ug/disk after 24 hrs by agar diffusion assay; format: functional; details: ATCC 14579, 24 h, read-out: DIZ
[24] = system: Micrococcus luteus; experiment: Antibacterial activity against Sarcina lutea ATCC 9341 at 30 ug/disk after 24 hrs by agar diffusion assay; format: functional; details: ATCC 9341, 24 h, read-out: DIZ

| Compound | zone of inhibition at 10000 µg/mL [7] [mm] | zone of inhibition at 10000 µg/mL [8] [mm] | zone of inhibition at 10000 µg/mL [9] [mm] | zone of inhibition at 10000 µg/mL [10] [mm] | zone of inhibition at 10000 µg/mL [11] [mm] | zone of inhibition at 10000 µg/mL [12] [mm] | zone of inhibition at 10000 µg/mL [13] [mm] | zone of inhibition at 10000 µg/mL [14] [mm] | zone of inhibition at 10000 µg/mL [15] [mm] | further results |
| --- | --- | --- | --- | --- | --- | --- | --- | --- | --- | --- |
| CC1(C)S[C@@H]2[C@H](NC(=O)[C@H](N)c3ccccc3)C(=O)N2[C@H]1C(=O)O [AMPICILLIN] | – | – | – | – | – | – | – | – | – | zone of inhibition at 25 µg/disc [1]: 25 mm; zone of inhibition at 25 µg/disc [2]: 0 mm; zone of inhibition at 25 µg/disc [3]: 0 mm; zone of inhibition at 25 µg/disc [4]: 25 mm; zone of inhibition at 25 µg/disc [5]: 20 mm; zone of inhibition at 25 µg/disc [6]: 30 mm |
| C=C1CC[C@H]2C(C)(C)CCC[C@]2(C)[C@H]1CC(=O)N(C(=O)NC1CCCCC1)C1CCCCC1 | 0 | 0 | 0 | 19 | 0 | 0 | 11 | 0 | 0 | – |
| NYSTATIN | – | – | – | – | – | – | – | – | – | inhibition zone (IZ) [16]: 26 mm; inhibition zone (IZ) [17]: 29 mm; inhibition zone (IZ) [18]: 31 mm |
| C=C1CC[C@H]2C(C)(C)CCC[C@]2(C)[C@H]1CC(=O)Nc1ncccn1 | 0 | 0 | 0 | 14 | 10 | 0 | 12 | 7 | 19 | – |
| C=C1CC[C@H]2C(C)(C)CCC[C@]2(C)[C@H]1CC(=O)Nc1ccncn1 | 0 | 0 | 0 | 15 | 12 | 0 | 10 | 7 | 18 | – |
| C=C1CC[C@H]2C(C)(C)CCC[C@]2(C)[C@H]1CC(=O)N(C(=O)C[C@H]1C(=C)CC[C@H]2C(C)(C)CCC[C@]12C)c1ncccn1 | 0 | 0 | 10 | 10 | 0 | 0 | 0 | 0 | 0 | – |
| O=C(N[C@H](CO)[C@H](O)c1ccc([N+](=O)[O-])cc1)C(Cl)Cl [CHLORAMPHENICOL] | – | – | – | – | – | – | – | – | – | zone of inhibition at 30 µg/disc [19]: 19 mm; zone of inhibition at 30 µg/disc [20]: 25 mm; zone of inhibition at 30 µg/disc [21]: 29 mm; zone of inhibition at 30 µg/disc [22]: 31 mm; zone of inhibition at 30 µg/disc [23]: 28 mm; zone of inhibition at 30 µg/disc [24]: 30 mm |
| C=C1CC[C@H]2C(C)(C)CCC[C@]2(C)[C@H]1CC(=O)Nc1cnccn1 | 0 | 0 | 0 | 15 | 0 | 0 | 10 | 0 | 0 | – |
